The subject of this experiment is P388 leukemia ip, CD2F1 mice, survival T/C. The experiment in a line: NCI In Vivo Anticancer Drug Screen. Data for tumor model P388 Leukemia (intraperitoneal) in CD2F1 (CDF1) mice. The conditions noted are these: endpoint: median survival time, higher = longer survival. In short, it runs like this: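 Mice carrying the transplanted tumor received test compound or vehicle. Survival was recorded in each group, and the value is the treated-group measurement divided by that of the vehicle-treated control group.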

Setting [1] is: dose: 50.0 mg/kg/injection, schedule: Q01DX009 (ip), vehicle: saline.
Setting [2] is: dose: 200.0 mg/kg/injection, schedule: Q01DX009 (ip), vehicle: saline.
[3] abbreviates: dose: 100.0 mg/kg/injection, schedule: Q01DX009 (ip), vehicle: saline with Tween-80.
[4] abbreviates: dose: 200.0 mg/kg/injection, schedule: Q01DX009 (ip), vehicle: saline with Tween-80.
Setting [5] is: dose: 25.0 mg/kg/injection, schedule: Q01DX005 (ip), vehicle: saline with Tween-80.
The mark [6] stands for this setting: dose: 50.0 mg/kg/injection, schedule: Q01DX005 (ip), vehicle: saline with Tween-80.
Where [7] appears, read: dose: 100.0 mg/kg/injection, schedule: Q01DX005 (ip), vehicle: saline with Tween-80.
The mark [8] stands for this setting: dose: 200.0 mg/kg/injection, schedule: Q01DX005 (ip), vehicle: saline with Tween-80.
Setting [9] is: dose: 60.0 mg/kg/injection, schedule: Q01DX005 (ip), vehicle: saline with Tween-80.
Where [10] appears, read: dose: 120.0 mg/kg/injection, schedule: Q01DX005 (ip), vehicle: saline with Tween-80.
Setting [11] is: dose: 240.0 mg/kg/injection, schedule: Q01DX005 (ip), vehicle: saline with Tween-80.
[12] abbreviates: dose: 100.0 mg/kg/injection, schedule: Q01DX009 (ip), vehicle: saline.
Where [13] appears, read: dose: 50.0 mg/kg/injection, schedule: Q01DX005 (ip), vehicle: Klucel (hydroxypropylcellulose) (HPC).
Setting [14] is: dose: 50.0 mg/kg/injection, schedule: Q01DX009 (ip), vehicle: saline with Tween-80.
[15] abbreviates: dose: 100.0 mg/kg/injection, schedule: Q04DX002 (ip), vehicle: saline with Tween-80.
The mark [16] stands for this setting: dose: 200.0 mg/kg/injection, schedule: Q04DX002 (ip), vehicle: saline with Tween-80.
The mark [17] stands for this setting: dose: 100.0 mg/kg/injection, schedule: Q01DX005 (ip), vehicle: Klucel (hydroxypropylcellulose) (HPC).
The mark [18] stands for this setting: dose: 200.0 mg/kg/injection, schedule: Q01DX005 (ip), vehicle: Klucel (hydroxypropylcellulose) (HPC).
[19] abbreviates: dose: 12.5 mg/kg/injection, schedule: Q01DX005 (ip), vehicle: saline with Tween-80.

Where “and” joins values, the source holds several entries; their conditions need not be identical. Equal values may be shown once. Toxic doses and inconclusive results are not listed.

Take `CC1C(=O)C23CCC4C5(C)CCCC4(C4OCCN4C5)C2CCC1C3` (centres undefined): the T/C reads like this: (dose: 1.0 mg/kg/injection, schedule: Q01DX009 (ip), vehicle: Klucel (hydroxypropylcellulose) (HPC)) 99 % of control; (dose: 2.0 mg/kg/injection, schedule: Q01DX009 (ip), vehicle: Klucel (hydroxypropylcellulose) (HPC)) 97 % of control; (dose: 4.0 mg/kg/injection, schedule: Q01DX009 (ip), vehicle: Klucel (hydroxypropylcellulose) (HPC)) 98 % of control; (dose: 8.0 mg/kg/injection, schedule: Q01DX009 (ip), vehicle: Klucel (hydroxypropylcellulose) (HPC)) 97 % of control.

For `O=C(Nc1ccc(NC(=O)c2ccc(C3=NCCCN3)cc2)cc1)Nc1ccc(C2=NCCCN2)cc1`, the T/C is 163 % of control (dose: 10.0 mg/kg/injection, schedule: Q01DX009 (ip), vehicle: saline with Tween-80); 113 % of control (dose: 10.0 mg/kg/injection, schedule: Q01DX009 (ip), vehicle: saline); 159 % of control (dose: 20.0 mg/kg/injection, schedule: Q01DX009 (ip), vehicle: saline).

Consider `COc1ccccc1OC(C)=O`, for which the T/C under setting [1] was 97 % of control and the T/C under setting [2] was 88 % of control.

On to `c1ccc2nc(-c3cc4ccccc4s3)ccc2c1`, for which the T/C was 100 % of control and 104 % of control under setting [3]; 90 % of control (dose: 100.0 mg/kg/injection, schedule: Q04DX003 (ip), vehicle: saline with Tween-80); 100 % of control and 90 % of control under setting [4]; 90 % of control (dose: 200.0 mg/kg/injection, schedule: Q04DX003 (ip), vehicle: saline with Tween-80); 109 % of control and 95 % of control (dose: 400.0 mg/kg/injection, schedule: Q01DX009 (ip), vehicle: saline with Tween-80); 90 % of control (dose: 400.0 mg/kg/injection, schedule: Q04DX003 (ip), vehicle: saline with Tween-80).

Take `Cc1ccc(-n2nc(C(O)C(O)C(O)CO)c3nc4cc(C)c(C)cc4nc32)cc1` (centres undefined): the T/C was 98 % of control under setting [5]; 100 % of control and 90 % of control under setting [6]; 102 % of control under setting [7]; 100 % of control under setting [8].

In the case of `Cc1ccc2nc(CC(=O)c3cccnc3)c(CC(=O)c3cccnc3)nc2c1`, the T/C is, setting by setting: under setting [9], 93 % of control; under setting [10], 100 % of control; under setting [11], 100 % of control.

Turning to `O=C1C=CC(Nc2ccc(Cl)c(Cl)c2)C1Nc1ccc(Cl)c(Cl)c1` (centres undefined), the T/C runs as follows: under setting [9], 100 % of control; under setting [10], 93 % of control; under setting [11], 93 % of control.

As to `Cc1cc(Br)ccc1N=Cc1ccc(C=Nc2ccc(Br)cc2C)cc1`, the T/C under setting [1] was 90 % of control, the T/C under setting [12] was 86 % of control and the T/C under setting [2] was 92 % of control.

As to `CNc1[nH]c(=O)[nH]c(=O)c1[N+](=O)[O-]`, the T/C by setting is: (dose: 12.5 mg/kg/injection, schedule: Q01DX005 (ip), vehicle: Klucel (hydroxypropylcellulose) (HPC)) 100 % of control; (dose: 25.0 mg/kg/injection, schedule: Q01DX005 (ip), vehicle: Klucel (hydroxypropylcellulose) (HPC)) 105 % of control; under setting [13], 105 % of control and 112 % of control.

Take `CC1CN1C(=O)Nc1cccc(Cl)c1` (centres undefined): the T/C was 100 % of control under setting [1] and 102 % of control under setting [12].

With `CCOC(=O)C(C(=O)c1ccccc1)C(=O)C(C)(C)C` (centres undefined), the T/C under setting [14] was 100 % of control, the T/C under setting [3] is 91 % of control and the T/C under setting [4] is 95 % of control.

Turning to `CCOC(=O)C1=S=C(SC)N(C)C1=O`, the T/C under setting [14] is 107 % of control and the T/C under setting [3] is 107 % of control.

With `N#Cc1c(N)[nH]c2ccc(Sc3ccccc3)cc12`, the T/C by setting is: (dose: 7.5 mg/kg/injection, schedule: Q01DX005 (ip), vehicle: saline with Tween-80) 97 % of control; (dose: 15.0 mg/kg/injection, schedule: Q01DX005 (ip), vehicle: saline with Tween-80) 99 % of control; (dose: 30.0 mg/kg/injection, schedule: Q01DX005 (ip), vehicle: saline with Tween-80) 104 % of control.

Turning to `Cc1cc(Cl)nc2ccc([N+](=O)[O-])cc12`, the T/C is 92 % of control (dose: 100.0 mg/kg/injection, schedule: Q04DX003 (ip), vehicle: saline); 94 % of control (dose: 200.0 mg/kg/injection, schedule: Q04DX003 (ip), vehicle: saline); 91 % of control (dose: 400.0 mg/kg/injection, schedule: Q04DX003 (ip), vehicle: saline).

Regarding `COC(=O)C1=NC(=S)N=C(C(=O)OC)C1(C)C(=O)c1ccccc1`, the T/C by setting is: (dose: 60.0 mg/kg/injection, schedule: Q01DX005 (ip), vehicle: saline) 95 % of control; (dose: 120.0 mg/kg/injection, schedule: Q01DX005 (ip), vehicle: saline) 95 % of control; (dose: 240.0 mg/kg/injection, schedule: Q01DX005 (ip), vehicle: saline) 118 % of control.

For the compound `COc1ccc2c(c1)CCc1c-2nc[nH]c1=O`, the T/C reads like this: under setting [15], 103 % of control; under setting [16], 96 % of control; (dose: 400.0 mg/kg/injection, schedule: Q04DX002 (ip), vehicle: saline with Tween-80) 96 % of control.

With `Cc1cc(NC(=O)C(=O)O)cc2c(=O)cc(C(=O)O)[nH]c12`, the T/C by setting is: (dose: 25.0 mg/kg/injection, schedule: Q01DX009 (ip), vehicle: Klucel (hydroxypropylcellulose) (HPC)) 102 % of control; (dose: 50.0 mg/kg/injection, schedule: Q01DX009 (ip), vehicle: Klucel (hydroxypropylcellulose) (HPC)) 117 % of control and 124 % of control.

With `CCN1C(=O)NC(=O)C(C)(N2CCCCC2)C1=O` (centres undefined), the T/C under setting [13] was 108 % of control, the T/C under setting [17] is 103 % of control and the T/C under setting [18] was 100 % of control.

For the compound `COc1ccccc1CNCCCCCCNCCSSCCNCCCCCCNCc1ccccc1OC`, the T/C (dose: 12.5 mg/kg/injection, schedule: Q04DX002 (ip), vehicle: suspension in saline) is 102 % of control and the T/C (dose: 25.0 mg/kg/injection, schedule: Q04DX002 (ip), vehicle: suspension in saline) is 97 % of control.

For `ICC1(CI)COC1`, the T/C is 105 % of control (dose: 100.0 mg/kg/injection, schedule: Q01DX009 (ip), vehicle: Klucel (hydroxypropylcellulose) (HPC)); 104 % of control (dose: 200.0 mg/kg/injection, schedule: Q01DX009 (ip), vehicle: Klucel (hydroxypropylcellulose) (HPC)); 99 % of control (dose: 400.0 mg/kg/injection, schedule: Q01DX009 (ip), vehicle: Klucel (hydroxypropylcellulose) (HPC)).

In the case of `NNC(=O)CCSC(=O)Nc1ccccc1`, the T/C is 110 % of control under setting [19]; 106 % of control under setting [5]; 107 % of control and 112 % of control under setting [6]; 114 % of control under setting [7].

Regarding `O=C1CN(Cc2ccccc2)CC(=O)N2Cc3ccccc3CN12`, the T/C under setting [19] was 98 % of control, the T/C under setting [5] was 105 % of control and the T/C under setting [6] is 102 % of control.

In the case of `O=C(Sc1ccc(F)cc1)N1CCN(C(=O)Sc2ccc(F)cc2)CC1`, the T/C reads like this: under setting [13], 99 % of control; under setting [17], 96 % of control; under setting [18], 100 % of control.

As for `O=c1cc(F)cc[nH]1`, the T/C runs as follows: (dose: 50.0 mg/kg/injection, schedule: Q01DX005 (ip), vehicle: saline) 103 % of control; (dose: 100.0 mg/kg/injection, schedule: Q01DX005 (ip), vehicle: saline) 104 % of control; (dose: 200.0 mg/kg/injection, schedule: Q01DX005 (ip), vehicle: saline) 109 % of control.

For the compound `[Cu+2].[O-]/C(=N\N=C\c1ccccn1)c1ccccc1O.[O-]/C(=N\N=C\c1ccccn1)c1ccccc1O`, the T/C reads like this: (dose: 50.0 mg/kg/injection, schedule: Q04DX002 (ip), vehicle: saline with Tween-80) 98 % of control; under setting [15], 95 % of control; under setting [16], 94 % of control.

Take `CC(=O)NC1C(NC(=S)NCC(=O)c2ccc(C)cc2)OC(COC(C)=O)C(OC(C)=O)C1OC(C)=O` (centres undefined): the T/C runs as follows: under setting [6], 94 % of control; under setting [7], 94 % of control; under setting [8], 91 % of control.

Source of the values: PubChem BioAssay AID330 (DTP/NCI, 2004).
